How the values were obtained:
DU145 cells = assay: Cell line specificity: mitotic index, number of objects and rice phenotype in DU145 cells; type: cell-based
Description: (§1) But it is apparently immune to all anti-mitotic agents.
(§2) As shown, the discrepancy exists over a wide range of concentrations. The two effects depicted in FIG. 7A are number of objects (a measure of the compound's cell killing strength) and mitotic index (fraction of the cells in a population that are in the mitotic phase).
FIG. 7B compares phenotypes of DU145 cells that were treated with 4-(3-Bromo-4-hydroxy-5-methoxy-phenyl)-6-methyl-2-oxo-1,2,3,4-tetrahydro-pyrimidine-5-carboxylic acid 1,2,2-trimethyl-propyl ester (top panel) to phenotypes of DU145 cells that were treated with a different compound (bottom panel). […] Note that the other compound produces a phenotype bearing some resemblance to the rice phenotype in SKOV3 cells. Specifically, it produces mitotic spindles that are somewhat elongated. […] This was not observed with the other compound.

A549 cells = assay: Cell line specificity: mitotic index, number of objects and rice phenotype in A549 cells; type: cell-based, human; conditions: wide range of concentrations, FIG. 7A
Description: as §1, §2

SKOV3 cells [1] = assay: Image analysis of treated SKOV3 cells: mitotic index and interphase phenotype distance from control; type: cell-based
SKOV3 cells [2] = assay: as above; type: cell-based; conditions: for Impact on mitotic index / Impact on interphase features (combined distance from normal interphase phenotype): FIG. 5A, multiple concentrations; for Impact on mitotic index: 40 uM maximum; for Impact on interphase features (combined distance from normal interphase phenotype): 40 uM maximum (Taxol 0.8 uM maximum)
Description: In one specific example, a particular group of cellular features for characterizing the interphase phenotype of a cell could include, for all cells that are not mitotic: • the average size of cell nuclei; • the average elliptical axis ratio for nuclei; • the average kurtosis intensity of cells; • the average pixel intensity for Golgi apparatus in cells; • the average cell area; • the elliptical axis ratio for cells; • the form factor (area divided by perimeter) for cells; • the kurtosis of the intensity of tubulin; • the second moment of a cell; • the average total intensity of tubulin for each cell; • the proportion of branched (i.e. having projections) cells.
In one embodiment, after each cellular feature has been characterized, and similarly for the control group cellular features, a distance in multivariate space may be calculated. This can be the distance from a normal interphase phenotype as presented in the horizontal axis of FIG. 5A (described below). For the purposes of simplicity of discussion, if it is assumed that there are only three cellular features (a, b, c) comprising the interphase phenotype signature, and where the subscript ‘t’ refers to a feature of a treated cell and the subscript ‘c’ refers to a feature of a control cell, then the distance (L1) in multivariate space between the interphase signature of the treated cells and interphase signature of the control cells can be calculated as L1=|at−ac|+|bt−bc|+|ct−cc|, which provides the interphase metric.
FIG. 5A presents data showing that certain compounds producing the rice phenotype have very little effect on phenotypic features of interphase cells. In FIG. 5A, the vertical axis presents mitotic index, which is a measure of a compound's ability to cause mitotic arrest (thereby its ability to have a profound effect on the phenotype of mitotic cells), and the horizontal axis presents a “combined distance” from a normal interphase phenotype. The combined distance takes into account various features that characterize interphase phenotype, including those described above (i.e., the average size of cell nuclei, the average elliptical axis ratio for nuclei, the average kurtosis intensity of cells, etc.) Greater values on the horizontal axis indicate greater deviations from a control phenotype for interphase cells.
FIG. 5B is a profile graph showing that the interphase cells treated with rice compounds track interphase control cells for various interphase phenotypic features. These features include, as shown on the horizontal axis, the relative number of objects (putative cells), the average area occupied by DNA in the objects (presumably nuclei), the average axes ratio of the DNA regions in the objects, the average kurtosis of the Golgi regions, the mean intensity of the Golgi regions, average area encompassed by tubulin in the objects, the average axes ratio of tubulin in the objects, the average kurtosis of the tubulin regions, the average form factor of the tubulin regions, the average moment of the tubulin regions, the average total intensity of tubulin in each object, and the branching properties of the tubulin in the objects. Note that the cells used to generate this graph were treated with markers for Golgi (LC for labeled LC Lectin), DNA (HO for Hoechst stain), and tubulin (DM for labeled DM1-α). As shown, the rice features closely track those of the DMSO treated cells and diverge strongly from the interphase cells of Taxol treated cells.
The data of FIG. 5B were obtained by treating SKOV3 cells with many different compounds and then capturing the interphase characteristics shown in the horizontal axis using image analysis techniques. The concentration of each compound was chosen by determining what concentration of a compound produced a mitotic index between 14 and 17% after cells were treated at multiple concentrations and then imaged to capture Golgi, tubulin, and DNA data for the interphase features shown in FIG. 5B. […]

SKOV3 cells [3] = assay: Mitotic spindle length in tubulin marker images of SKOV3 cells; type: cell-based
Description: In accordance with this invention, the length of a bipolar mitotic spindle may be measured as the separation distance between the spindle poles. To make such measurement, mitotic spindles are observed by a suitable technique such as one that employs a marker for a specific component of the spindle. For example, the technique may involve treating cells with a marker for tubulin and then imaging them under conditions that illuminate such marker. This facilitates automated identification of the mitotic spindle and measurement of its length using image analysis algorithms. […]
The data in this table was obtained for SKOV3 cells (ovarian cancer cell line) treated with DMSO (control) and a compound that produces the rice phenotype. […] In the table, “n” is the number of cells that were analyzed to generate a mean length in micrometers as indicated and associated standard deviation. Spindle lengths were measured manually in this example.
Manual measurements were taken from one image each of DMSO, rice compound 4-(3-Bromo-4-hydroxy-5-methoxy-phenyl)-6-methyl-2-oxo-1,2,3,4-tetrahydro-pyrimidine-5-carboxylic acid 1,2,2-trimethyl-propyl ester at 40 uM, and a mitotic kinesin inhibitor at 40 uM using MetaMorph Imaging Software. Lines were drawn between what was manually determined to be the ends of the mitotic spindle. […]

60 cell lines = conditions: NCI panel data; cited from earlier work
[4] = wide range of concentrations, FIG. 7A
[5] = SK0V3 cell line, wide range of concentrations, FIG. 7A

| Compound | Induction of the rice phenotype (DU145 cells; tubulin staining, FIG. 7B) | Effect on cell number (number of objects) (DU145 cells; [4]) | Effect on mitotic index (DU145 cells; [4]) | Effect on cell number (number of objects) (A549 cells) | Effect on mitotic index (A549 cells) | Effect on cell number (number of objects) (SKOV3 cells [1]; [5]) | Effect on mitotic index (SKOV3 cells [1]; [5]) | Induction of the rice phenotype (SKOV3 cells [1]; SKOV3 cells) | Impact on mitotic index (SKOV3 cells [2]) | Impact on interphase features (combined distance from normal interphase phenotype) (SKOV3 cells [2]) | Production of elongated metaphase spindles (SKOV3 cells [3]) | Interphase phenotypic features profile compared to control (SKOV3 cells [2]; FIG. 5B, SKOV3 cells, concentrations inducing approximately 15% mitotic arrest) | Potency differences between cell types (60 cell lines) | Organization of nuclear DNA in interphase cells compared to control (SKOV3 cells [1]; 40 uM for 24 hours, GFP-Histone, FIG. 6A) | Mitotic spindle length compared to control cells (SKOV3 cells [3]; 40 uM for 24 hours, control 0.4% DMSO, FIG. 2A) |
| --- | --- | --- | --- | --- | --- | --- | --- | --- | --- | --- | --- | --- | --- | --- | --- |
| COc1cc(C2NC(=O)NC(C)=C2C(=O)OC(C)C(C)(C)C)cc(Br)c1O (centres unmarked) [4-(3-Bromo-4-hydroxy-5-methoxy-phenyl)-6-methyl-2-oxo-1,2,3,4-tetrahydro-pyrimidine-5-carboxylic acid 1,2,2-trimethyl-propyl ester] | produces a rice phenotype | significant affects | significant affects | limited effect | limited effect | significant affects | significant affects | clearly manifest | significant impact on mitotic index | minimal impact on interphase features |  |  |  |  |  |
| CC(=O)O[C@H]1C(=O)[C@@]2(C)[C@H]([C@H](OC(=O)c3ccccc3)[C@]3(O)C[C@H](OC(=O)[C@H](O)[C@@H](NC(=O)c4ccccc4)c4ccccc4)C(C)=C1C3(C)C)[C@]1(OC(C)=O)CO[C@@H]1C[C@@H]2O [Taxol, reference compound] |  |  |  | robust response | robust response |  |  |  |  | widely separated from the control interphase phenotype | do not produce elongated metaphase spindles | vary to a greater degree | over 3 orders of magnitude |  |  |
| COc1cc(C2NC(=O)N(C)C(C)=C2C(=O)OC2CCCC2)cc(Br)c1O (centres unmarked) [4-(3-Bromo-4-hydroxy-5-methoxy-phenyl)-1,6-dimethyl-2-oxo-1,2,3,4-tetrahydro-pyrimidine-5-carboxylic acid cyclopentyl ester] |  |  |  |  |  |  |  |  | significant impact on mitotic index | minimal impact on interphase features |  |  |  | similarly organized in rice interphase cells as it is in normal interphase cells | significantly longer than spindles in normal cells |
